Data as given in US20230312564A1, “AROMATIC RING-LACTAM COMPOUND, PREPARATION METHOD THEREFOR AND USE THEREOF” (SHANGHAI RINGENE BIOPHARMA CO., LTD., priority 2020, published 2023).
pIC50: −log10 of the molar value. Like-named read-outs stand apart in the source and are kept apart here.

What was measured:
[1] = biological target: T1, ERK1/2 kinase; assay: ERK1/2 kinase (Carna) inhibitory activity, Caliper mobility shift; format: biochemical; conditions: for pIC50: read-out: ERK½ IC50
T1 construct: fused on or other part: Carna's ERK products carry a GST tag by vendor knowledge
Method: (1) Preparation of 1×Kinase buffer; (2) preparation of compound concentration gradient: the initial test concentration of the tested compound was 10 μM, which was 3-fold diluted to 10 concentrations, and a duplicate test was conducted, and then the tested compound was diluted in a 96 well plate to a 100-fold final concentration of 10 different concentrations of solution. […] Log (inhibitor) vs. response—Variable slope of the analysis software GraphPad Prism 5 was used to fit the dose-effect curve to obtain the IC50 value of each compound on the enzyme activity.
2. […] (A<10 nM, 10 nM≤B<200 nM, C≥200 nM)

[2] = test system: Colo-205 cells; assay: Colo-205 tumor cell proliferation, CCK-8, 72 hours; format: cell-based; conditions: for pIC50: 72 hours, CCK-8, read-out: Colo-205 IC50; for cell proliferation inhibitory activity (in words): Colo-205
Method: 1. Test method: Colo-205 cells (ATCC) in logarithmic growth phase were inoculated into a 96-well culture plate at an appropriate density with 90 μL per well. After overnight culture, different concentrations of the compound were added and acted for 72 hours, and a solvent control group (negative control) was set. After the compound was acted on cells for 72 hours, the effect of the compound on cell proliferation was detected by the cell counting kit CCK-8 (Dojindo), and 10 μL of CCK-8 reagent was added to each well. After the plate was placed in a 37° C. incubator for 2 to 4 hours, a full-wavelength microplate reader SpectraMax 190 was adopted for obtaining the readings with a measured wavelength of 450 nm. […] The IC50 value was obtained by four-parameter regression with the software attached to the microplate reader.

[3] = In-vivo pharmacokinetic parameters in mice; design: species or system Balb-c mice
Method: Six male SPF grade SD rats or Balb-c mice (Shanghai Sipple-Bikai Laboratory Animal) were divided into two groups, and the tested compounds were prepared into appropriate solutions or suspensions; one group was administered intravenously (with a dose of 1 mg/kg), and the other group was administered orally (with a dose of 5 mg/kg). Blood samples were collected by jugular vein puncture, and each sample was collected with a volume of about 0.2 mL/time point, and heparin sodium was used for anticoagulation. The time points of blood collection were listed below: 5, 15 and 30 min […], 1, 2, 4, 6, 8 and 24 h after administration; the collected blood samples were placed on ice and centrifuged to separate plasma (centrifugation conditions: 8,000 rpm, 6 min, 2 to 8° C.), and the collected plasma was stored at −80° C. before analysis. Plasma samples were analyzed by LC-MS/MS.
The pharmacokinetic parameters such as AUC0-t, AUC0-∞, MRT0-∞, Cmax, Tmax, T1/2 and Vd of the tested compounds and their mean values and standard deviations were calculated by the pharmacokinetic calculation software WinNonlin5.2 non-compartmental model according to the plasma concentration data. In addition, the bioavailability (F) was calculated by the following formula.
For samples with concentrations below the lower limit of quantitation, while pharmacokinetic parameter calculations were performed, samples sampled before Cmax was reached should be calculated as a zero value and samples sampled after Cmax was reached should be calculated as below limit of quantitation (BLQ).

[4] = test system: Colo-205 transplanted tumor; assay: Growth inhibition of nude mice Colo-205 transplanted tumor; format: in vivo; conditions: 50 mg/kg, qdx21, po
Method: The tumor tissue in the vigorous growth phase was cut into about 1.5 mm^3 and inoculated subcutaneously in the right axilla of nude mice under sterile conditions. The diameter of subcutaneous transplanted tumors in nude mice was measured with a vernier caliper, and the mice were randomly divided into groups when the average tumor volume reached about 130 mm^3. The embodiment compounds (injection water containing 1% Tween 80 were configured to a desired concentration for later use) were orally administered daily at a given dose for three consecutive weeks, and the solvent control group was administered with the same amount of solvent. During the whole test, the diameter of transplanted tumor was measured twice a week, and the mice were weighed at the same time. The calculation formula of tumor volume (TV) is expressed as TV=1/2×a×b^2, wherein a and b represent length and width, respectively. The relative tumor volume (RTV) was calculated according to the measurement results, and the calculation formula is RTV=Vt/V0, wherein V0 is the tumor volume measured when administered in separate cages (i.e., d0), and Vt is the tumor volume at the time of each measurement.

[5] = Homo sapiens, COLO 205, class symbols
[6] = Homo sapiens, COLO 205, numeric values
[7] = male, Balb-c, mouse, plasma, IV, 1 mg/kg
[8] = male, Balb-c, mouse, plasma, PO, 5 mg/kg

Row | Compound | pIC50 ([1]; numeric values) | pIC50 [2, 5] | pIC50 ([1]; class symbols) | other results
1 | Cc1cccc([C@@H](CO)NC(=O)[C@@H](C)N2Cc3ccc(-c4nc(NC5CC(F)(F)C5)ncc4Cl)nc3C2=O)c1 [Embodiment 10] | 7.89 | 6.00 to 7.00 |  | 
2 | Cc1cccc([C@@H](CO)NC(=O)[C@@H](C)N2Cc3ccc(-c4nc(N[C@H]5CCOC5)ncc4Cl)nc3C2=O)c1 [Embodiment 11] | 8.08 | 6.00 to 7.00 |  | 
3 | Cc1cccc([C@@H](CO)NC(=O)[C@@H](C)N2Cc3ccc(-c4nc(Nc5ccc(F)c(N6CCOCC6)c5)ncc4Cl)nc3C2=O)c1 [Embodiment 12] | 7.92 | 6.00 to 7.00 |  | 
4 | Cc1cccc([C@@H](CO)NC(=O)[C@@H](C)N2Cc3ccc(-c4cc(NC5CCOCC5)ncc4Cl)nc3C2=O)c1 [Embodiment 13] |  | 6.00 to 7.00 | 6.70 to 8.00 | 
5 | Cc1cccc([C@@H](CO)NC(=O)[C@@H](C)N2Cc3ccc(-c4cc(NC5CCOCC5)ncc4C)nc3C2=O)c1 [Embodiment 14] |  | 6.00 to 7.00 | 6.70 to 8.00 | 
6 | Cc1cccc([C@@H](CO)NC(=O)[C@@H](C)N2Cc3ccc(-c4cc(Nc5ccnn5C)ncc4F)nc3C2=O)c1 [Embodiment 15] |  | 6.00 to 7.00 | 6.70 to 8.00 | 
7 | Cc1cccc([C@@H](CO)NC(=O)[C@@H](C)N2Cc3ccc(-c4ccnc(Nc5ccnn5C)n4)nc3C2=O)c1 [Embodiment 16] |  | > 7.00 | > 8.00 | 
8 | Cc1cccc([C@@H](CO)NC(=O)[C@@H](C)N2Cc3ccc(-c4nc(NC5COC5)ncc4Cl)nc3C2=O)c1 [Embodiment 17] | 8.28 | 6.00 to 7.00 |  | 
9 | C[C@H](C(=O)N[C@H](CO)c1ccc(F)c(Cl)c1)N1Cc2ccc(-c3nc(NC4CCOCC4)ncc3Cl)nc2C1=O [Embodiment 19] | 8.32 |  |  | pIC50 [2, 6]: 6.70
10 | Cc1cccc([C@@H](CO)NC(=O)[C@@H](C)N2Cc3ccc(-c4ccnc(Nc5ccnn5C)n4)c(F)c3C2=O)c1 [Embodiment 27] | 8.89 |  |  | pIC50 ([2]; class symbols): > 7.00
11 | Cc1cccc([C@@H](CO)NC(=O)[C@@H](C)N2Cc3ccc(-c4ccnc(NC(C)C)n4)c(F)c3C2=O)c1 [Embodiment 29] | 8.44 |  |  | pIC50 ([2]; class symbols): 6.00 to 7.00
12 | Cc1cccc([C@@H](CO)NC(=O)[C@@H](C)N2Cc3ccc(-c4nc(NC5CCOCC5)ncc4F)c(F)c3C2=O)c1 [Embodiment 31, (R)-2-(7-Fluoro-6-(5-fluoro-2-((tetrahydro-2H-pyran-4-yl)amino)pyrimidin-4-yl)-1-oxoisoindolin-2-yl)-N—((S)-2-hydroxy-1-(m-tolyl)ethyl)propanamide] |  |  |  | F ([3]; PO 5 mg/kg vs IV 1 mg/kg): 52%; AUC(0-inf) [3, 7]: 0.407 µM·h; AUC(0-t) [3, 7]: 0.397 µM·h; MRT inf [3, 7]: 30 min; clearance [3, 7]: 75 mL/min/kg; half-life [3, 7]: 84 min; Vd ([3]; male, Balb-c, mouse, plasma, IV, 1 mg/kg, read-out: Vss): 2 L/kg; AUC(0-inf) [3, 8]: 1.06 µM·h; AUC(0-t) [3, 8]: 1.05 µM·h; Cmax [3, 8]: 1170 nM; Tmax [3, 8]: 18 min; half-life [3, 8]: 90 min; T/C [4]: 27.9%; Initial weight (D0) ([4]; D0): 20.1 g; Terminal weight (D21) ([4]; D21): 21.7 g; Initial tumor volume ([4]; initial): 96 ± 21 mm^3; Terminal tumor volume ([4]; terminal): 271 ± 128 mm^3
13 | Cc1cccc([C@@H](CO)NC(=O)[C@@H](C)N2Cc3ccc(-c4nc(Nc5ccnn5C)ncc4Cl)c(F)c3C2=O)c1 [Embodiment 32] | 8.85 |  |  | pIC50 ([2]; numeric values): 7.01
14 | COc1cc(F)cc([C@@H](CO)NC(=O)[C@@H](C)N2Cc3ccc(-c4nc(NC5CC(F)(F)C5)ncc4F)c(F)c3C2=O)c1 [Embodiment 43] |  | > 7.00 | > 8.00 | 
15 | COc1cc(F)cc([C@@H](CO)NC(=O)[C@@H](C)N2Cc3ccc(-c4nc(Nc5ccnn5C)ncc4F)c(F)c3C2=O)c1 [Embodiment 45] | > 9.00 | > 7.00 |  | enzyme inhibitory activity (in words) [1]: extremely strong enzyme inhibitory activity; cell proliferation inhibitory activity (in words) [2]: strong cell proliferation inhibitory activity
16 | Cn1nccc1Nc1nccc(-c2ccn([C@H](CO)c3ccc(Cl)c(F)c3)c(=O)c2)n1 [GDC0994, reference compound] |  |  | > 8.00 | pIC50 [2, 6]: 6.78
17 | Cn1nccc1Nc1nccc(-c2cc3c(s2)C(C)(C)N(CCN2CCOCC2)C3=O)n1 [LY3214996, reference compound] |  |  | > 8.00 | pIC50 [2, 6]: 6.50
18 | (R)-2-(6-(5-Chloro-2-((tetrahydro-2H-pyran-4-yl)amino)pyrimidin-4-yl)-4-fluoro-1-oxoisoindolin-2-yl)-N—((S)-2-hydroxy-1-(m-tolyl)ethyl)propanamide [Comparative compound 4, reference compound] | 6.98 |  |  | pIC50 ([2]; class symbols): < 6.00

The next lines start with results.

Row | pIC50 ([1]; numeric values) | pIC50 [2, 5] | pIC50 ([1]; class symbols) | Compound | other results
19 | 8.74 |  |  | C[C@H](C(=O)N[C@H](CO)c1cccc(F)c1)N1Cc2ccc(-c3nc(NC4CCOCC4)ncc3Cl)nc2C1=O [Embodiment 20] | enzyme inhibitory activity (in words) [1]: extremely strong enzyme inhibitory activity; pIC50 [2, 6]: 6.61
20 | 8.89 |  |  | Cc1cccc([C@@H](CO)NC(=O)[C@@H](C)N2Cc3ccc(-c4ccnc(NC5CCOCC5)c4)c(F)c3C2=O)c1 [Embodiment 22] | enzyme inhibitory activity (in words) [1]: extremely strong enzyme inhibitory activity; cell proliferation inhibitory activity (in words) [2]: strong cell proliferation inhibitory activity; pIC50 [2, 6]: 7.17
21 | 8.43 |  |  | Cc1cccc([C@@H](CO)NC(=O)[C@@H](C)N2Cc3ccc(-c4nc(NC5CCOCC5)ncc4F)nc3C2=O)c1 [Embodiment 28] | pIC50 ([2]; class symbols): 6.00 to 7.00
22 | 8.16 |  |  | Cc1cccc([C@@H](CO)NC(=O)[C@@H](C)N2Cc3ccc(-c4ccnc(NC5CCOCC5)n4)nc3C2=O)c1 [Embodiment 30] | pIC50 ([2]; class symbols): 6.00 to 7.00
23 | > 9.00 | > 7.00 |  | Cc1cccc([C@@H](CN)NC(=O)[C@@H](C)N2Cc3ccc(-c4nc(NC5CCOCC5)ncc4F)c(F)c3C2=O)c1 [Embodiment 36] | enzyme inhibitory activity (in words) [1]: extremely strong enzyme inhibitory activity; cell proliferation inhibitory activity (in words) [2]: strong cell proliferation inhibitory activity
24 |  | 6.00 to 7.00 | > 8.00 | C[C@H](C(=O)N[C@H](CO)c1cccc(Cl)c1)N1Cc2ccc(-c3nc(NC4CCC(F)(F)CC4)ncc3F)c(F)c2C1=O [Embodiment 38] | 
25 |  | 6.00 to 7.00 | > 8.00 | C[C@H](C(=O)N[C@H](CO)c1cccc(Cl)c1)N1Cc2ccc(-c3nc(NC4CCC(O)C(F)C4)ncc3F)c(F)c2C1=O (stereo partly shown) [Embodiment 39] | enzyme inhibitory activity (in words) [1]: extremely strong enzyme inhibitory activity
26 | > 9.00 | > 7.00 |  | Cc1cc([C@@H](CO)NC(=O)[C@@H](C)N2Cc3ccc(-c4nc(NC5CCOCC5)ncc4F)c(F)c3C2=O)ccn1 [Embodiment 41] | 
27 |  | 6.00 to 7.00 | > 8.00 | C[C@H](C(=O)NCc1cccc(N(C)C)n1)N1Cc2ccc(-c3nc(NC4CCOCC4)ncc3F)c(F)c2C1=O [Embodiment 47] | 
28 |  | > 7.00 | > 8.00 | C[C@H](C(=O)N[C@H](CO)c1cccc(Cl)c1)N1Cc2ccc(-c3nc(NC4CC[C@H](O)[C@@H](F)C4)ncc3F)c(F)c2C1=O (stereo partly shown) [Embodiment 50] | 
